# Assay results from BindingDB's records for doi:10.1021/jm980334n (University of New Mexico School of Medicine, 1998).
# Target: L-lactate dehydrogenase (Plasmodium falciparum) (UniProt Q27743)
# Experiment: inhibitory activity against Plasmodium falciparum LDH (pLDH)
row,Compound,Ki [µM]
1,"Cc1cc2c(C)c(O)c(O)c(C(=O)O)c2cc1C [2,3-Dihydroxy-4,6,7-trimethyl-naphthalene-1-carboxylic acid]",13
2,"Cc1cc2c(C(C)C)c(O)c(O)c(C(=O)O)c2cc1Cc1ccccc1 [7-Benzyl-2,3-dihydroxy-4-isopropyl-6-methyl-naphthalene-1-carboxylic acid]",0.7
3,"Cc1ccc2c(C(=O)O)c(O)c(O)c(C)c2c1 [2,3-Dihydroxy-4,6-dimethyl-naphthalene-1-carboxylic acid]",22
4,"Cc1cc2c(C(=O)O)c(O)c(O)c(C(C)C)c2cc1C [2,3-Dihydroxy-4-isopropyl-6,7-dimethyl-naphthalene-1-carboxylic acid]",1
5,"Cc1ccc2c(C(=O)O)c(O)c(O)c(C(C)C)c2c1 [2,3-Dihydroxy-4-isopropyl-6-methyl-naphthalene-1-carboxylic acid]",2
6,"CCCc1c(O)c(O)c(C(=O)O)c2ccc(C)cc12 [2,3-Dihydroxy-6-methyl-4-propyl-naphthalene-1-carboxylic acid]",6
7,"Cc1cc2c(C)c(O)c(O)c(C(=O)O)c2cc1Cc1ccccc1 [7-Benzyl-2,3-dihydroxy-4,6-dimethyl-naphthalene-1-carboxylic acid]",8
8,"Cc1cc2c(C(C)C)c(O)c(O)c(C(=O)O)c2cc1Cc1ccc(C(F)(F)F)cc1 [2,3-Dihydroxy-4-isopropyl-6-methyl-7-(4-trifluoromethyl-benzyl)-naphthalene-1-carboxylic acid]",0.2
